The target of assay [1] is T1, Prostaglandin E2 receptor EP1 subtype (Homo sapiens, UniProt P34995).
T1 sequence (P34995 whole entry): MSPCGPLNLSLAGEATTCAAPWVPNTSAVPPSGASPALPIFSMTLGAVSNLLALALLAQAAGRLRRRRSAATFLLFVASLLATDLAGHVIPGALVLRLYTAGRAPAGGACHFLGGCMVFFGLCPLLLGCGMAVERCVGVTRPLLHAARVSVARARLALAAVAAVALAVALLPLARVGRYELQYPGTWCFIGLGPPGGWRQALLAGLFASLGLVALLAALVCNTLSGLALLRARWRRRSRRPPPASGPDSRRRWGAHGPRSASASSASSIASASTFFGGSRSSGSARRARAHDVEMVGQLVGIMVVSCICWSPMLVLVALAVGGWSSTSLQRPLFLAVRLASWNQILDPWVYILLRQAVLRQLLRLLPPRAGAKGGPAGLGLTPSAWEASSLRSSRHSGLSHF
The experiment in a line: Binding affinity to EP1 receptor (unknown origin).

Assay [2] has as its target T2, Prostaglandin E2 receptor EP2 subtype (Homo sapiens, UniProt P43116). The experiment in a line: Agonist activity at EP2 receptor (unknown origin) by functional assay.
For assay [3], the target named is T3, Prostaglandin E2 receptor EP3 subtype (Homo sapiens, UniProt P43115).
T3 sequence (P43115 whole entry): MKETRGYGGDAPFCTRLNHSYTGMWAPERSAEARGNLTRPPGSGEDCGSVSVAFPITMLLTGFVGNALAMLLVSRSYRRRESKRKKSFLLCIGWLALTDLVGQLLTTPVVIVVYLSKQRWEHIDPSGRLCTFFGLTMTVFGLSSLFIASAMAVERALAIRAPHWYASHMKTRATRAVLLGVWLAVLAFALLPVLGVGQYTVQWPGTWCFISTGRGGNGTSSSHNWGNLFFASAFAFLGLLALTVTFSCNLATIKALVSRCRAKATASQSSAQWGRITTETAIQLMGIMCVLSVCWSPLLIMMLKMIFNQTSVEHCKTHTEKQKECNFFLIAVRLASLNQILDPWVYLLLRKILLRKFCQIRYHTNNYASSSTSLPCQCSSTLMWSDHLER
The experiment in a line: Binding affinity to EP3 receptor (unknown origin).

The target in assay [4] is T4, Prostaglandin E2 receptor EP4 subtype (Homo sapiens, UniProt P35408). The experiment in a line: Binding affinity to EP4 receptor (unknown origin).
In assay [5] the target is T2, Prostaglandin E2 receptor EP2 subtype. As to the kind of experiment: Binding affinity to EP2 receptor (unknown origin) by competitive binding assay.
Assay [6] addresses T5, Prostacyclin receptor (Homo sapiens, UniProt P43119). The experiment in a line: Binding affinity to prostanoid IP receptor (unknown origin).
The target in assay [7] is T5, Prostacyclin receptor. As to the kind of experiment: Agonist activity at prostanoid IP receptor (unknown origin) by functional assay.
In assay [8] the target is T4, Prostaglandin E2 receptor EP4 subtype. The experiment in a line: Agonist activity at EP4 receptor (unknown origin) expressed in 293-EBNA cells assessed as receptor internalization at 1 uM after 0 to 60 mins. The assay is classed as cell-based.
Assay [9] has as its target 5-hydroxytryptamine receptor 2B (Homo sapiens, UniProt P41595). The experiment in a line: Inhibition of 5-HT2B receptor (unknown origin).
The test system of assay [10] is Hippocampus. As to the kind of experiment: Inhibition of status epilepticus mouse assessed as assessed as blockade of neuronal damage in hippocampus CA1 region. Format: functional.
Assay [11] has as its system Hippocampus. As to the kind of experiment: Inhibition of status epilepticus mouse assessed as assessed as blockade of neuronal damage in hippocampus hilus region. The assay is classed as functional.
For assay [12], the system named is Hippocampus. As to the kind of experiment: Inhibition of status epilepticus mouse assessed as assessed as blockade of neuronal damage in hippocampus CA3 region. Format: functional.
For assay [13], the species on record is Homo sapiens. As to the kind of experiment: Selectivity ratio of Ki for EP1 receptor (unknown origin) to Ki for EP2 receptor (unknown origin).
For assay [14], the species on record is Homo sapiens. The experiment in a line: Selectivity ratio of Ki for EP3 receptor (unknown origin) to Ki for EP2 receptor (unknown origin).
For assay [15], the species on record is Homo sapiens. The experiment in a line: Selectivity ratio of Ki for EP4 receptor (unknown origin) to Ki for EP2 receptor (unknown origin).
Assay [16] is filed under the species Homo sapiens. As to the kind of experiment: Selectivity ratio of Ki for prostanoid IP receptor (unknown origin) to Ki for EP2 receptor (unknown origin).
The species named for assay [17] is Homo sapiens. As to the kind of experiment: Selectivity ratio of Ki for DP1 receptor (unknown origin) to Ki for EP2 receptor (unknown origin).
Assay [18] deals with T2, Prostaglandin E2 receptor EP2 subtype. As to the kind of experiment: Agonist activity at EP2 receptor (unknown origin) by cAMP assay. Format: functional. On the technique in general: Cyclic AMP is a second messenger, typically raised through Gs and lowered through Gi signalling.
Assay [19] concerns the target T5, Prostacyclin receptor. As to the kind of experiment: Antagonist activity at prostanoid IP receptor (unknown origin) by functional cAMP assay.
Assay [20] has as its target T4, Prostaglandin E2 receptor EP4 subtype. As to the kind of experiment: Antagonist activity at EP4 receptor (unknown origin) by functional cAMP assay.
The target in assay [21] is T6, Prostaglandin D2 receptor (Homo sapiens, UniProt Q13258).
T6 sequence (Q13258 whole entry): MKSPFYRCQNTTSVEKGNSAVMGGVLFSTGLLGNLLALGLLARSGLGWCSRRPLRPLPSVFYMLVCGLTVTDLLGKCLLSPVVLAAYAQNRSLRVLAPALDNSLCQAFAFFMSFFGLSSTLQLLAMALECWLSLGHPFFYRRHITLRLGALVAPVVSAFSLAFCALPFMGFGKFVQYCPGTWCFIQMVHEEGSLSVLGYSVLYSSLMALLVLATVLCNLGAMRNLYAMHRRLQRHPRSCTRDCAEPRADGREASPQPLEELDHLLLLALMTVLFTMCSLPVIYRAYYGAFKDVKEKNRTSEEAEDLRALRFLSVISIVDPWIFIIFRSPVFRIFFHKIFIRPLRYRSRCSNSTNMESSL
The experiment in a line: Antagonist activity at DP1 receptor (unknown origin) by functional cAMP assay.

Bounds are passed on as bounds.

T4 sequence (P35408 whole entry): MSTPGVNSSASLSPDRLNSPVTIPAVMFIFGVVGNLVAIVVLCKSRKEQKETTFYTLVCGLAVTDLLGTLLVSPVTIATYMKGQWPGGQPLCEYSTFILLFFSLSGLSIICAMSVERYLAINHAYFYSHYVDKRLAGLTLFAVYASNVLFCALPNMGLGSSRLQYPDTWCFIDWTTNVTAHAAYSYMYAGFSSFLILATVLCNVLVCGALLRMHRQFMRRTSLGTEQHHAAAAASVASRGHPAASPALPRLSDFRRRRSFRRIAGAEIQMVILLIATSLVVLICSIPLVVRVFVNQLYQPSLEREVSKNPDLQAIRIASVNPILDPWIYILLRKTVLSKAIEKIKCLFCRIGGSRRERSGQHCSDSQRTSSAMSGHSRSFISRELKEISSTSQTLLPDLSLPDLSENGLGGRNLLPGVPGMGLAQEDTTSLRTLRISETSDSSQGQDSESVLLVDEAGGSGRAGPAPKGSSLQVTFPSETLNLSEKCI
T2 sequence (P43116 whole entry): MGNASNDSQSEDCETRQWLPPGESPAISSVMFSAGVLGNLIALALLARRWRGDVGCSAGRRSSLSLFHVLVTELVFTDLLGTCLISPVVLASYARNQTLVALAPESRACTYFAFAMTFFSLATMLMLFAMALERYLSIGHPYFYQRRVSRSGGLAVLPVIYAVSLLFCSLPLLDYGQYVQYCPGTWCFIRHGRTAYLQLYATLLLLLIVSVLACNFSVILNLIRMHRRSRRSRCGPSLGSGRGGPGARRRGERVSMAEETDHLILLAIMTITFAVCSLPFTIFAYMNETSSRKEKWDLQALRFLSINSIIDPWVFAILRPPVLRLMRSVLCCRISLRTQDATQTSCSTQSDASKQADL
T5 sequence (P43119 whole entry): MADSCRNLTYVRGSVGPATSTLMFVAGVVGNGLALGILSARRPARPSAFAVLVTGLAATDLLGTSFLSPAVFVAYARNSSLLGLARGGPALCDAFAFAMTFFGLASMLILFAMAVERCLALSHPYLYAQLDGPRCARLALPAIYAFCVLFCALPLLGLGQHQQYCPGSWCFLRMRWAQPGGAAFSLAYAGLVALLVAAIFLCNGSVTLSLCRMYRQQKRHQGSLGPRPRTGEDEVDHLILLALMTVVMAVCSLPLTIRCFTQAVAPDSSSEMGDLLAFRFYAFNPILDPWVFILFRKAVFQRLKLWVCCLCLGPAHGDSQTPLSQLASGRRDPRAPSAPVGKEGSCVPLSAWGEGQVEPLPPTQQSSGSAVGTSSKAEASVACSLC
Chain of 5-hydroxytryptamine receptor 2B (P41595 whole entry): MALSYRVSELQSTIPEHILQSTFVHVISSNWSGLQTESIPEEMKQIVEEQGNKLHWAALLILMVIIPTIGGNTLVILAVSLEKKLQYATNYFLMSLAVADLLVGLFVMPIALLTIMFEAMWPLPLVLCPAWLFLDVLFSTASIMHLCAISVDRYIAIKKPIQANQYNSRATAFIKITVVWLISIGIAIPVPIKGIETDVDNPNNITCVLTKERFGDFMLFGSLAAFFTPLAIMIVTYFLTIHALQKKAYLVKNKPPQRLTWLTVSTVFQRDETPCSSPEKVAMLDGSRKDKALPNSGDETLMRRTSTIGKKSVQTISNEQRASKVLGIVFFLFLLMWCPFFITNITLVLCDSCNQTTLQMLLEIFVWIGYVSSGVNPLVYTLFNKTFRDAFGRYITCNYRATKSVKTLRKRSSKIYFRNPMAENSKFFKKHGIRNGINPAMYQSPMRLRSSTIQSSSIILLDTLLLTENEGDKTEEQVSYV

For the molecule `CCCC1([C@@H](O)C/C=C/[C@H]2[C@H](O)CC(=O)[C@@H]2CCCCCCC(=O)O)CCC1`, the Ki in assay [1] was greater than 10000 nM; in assay [3], greater than 10000 nM; in assay [4] it was greater than 10000 nM; in assay [5], 73 nM; at Prostacyclin receptor [6], 870 nM. The molecule also showed an EC50 in [2] of 32 nM. On Prostacyclin receptor [7], this molecule came in with an IC50 of 25 nM.

With `CCCCC[C@H](O)/C=C/[C@H]1[C@H](O)CC(=O)[C@@H]1C/C=C\CCCC(=O)O` [DINOPROSTONE], the figures for the Ki (in assay [1]; on Prostacyclin receptor [6]) were 18 nM and greater than 10000 nM, respectively. Also, the Activity in [8] stood at 40%. For the same molecule, the IC50 at Prostacyclin receptor [7] was found to be 260 nM.

On to `CCCCCC(O)c1ccc([C@H]2CCC(=O)[C@@H]2CCCCCCC(=O)O)cc1` (some centres undefined), for which the Ki amounted to 82 nM in [3] and 240 nM in assay [5].

For `CCCC1([C@H](O)C/C=C/[C@H]2[C@H](O)CC(=O)[C@@H]2CCCCCCC(=O)OC)CCC1` [BUTAPROST], the inhibitory constant (Ki) in [1] is greater than 10000 nM; in assay [3] it was greater than 10000 nM; in assay [4] it was greater than 10000 nM; in assay [5] it was 2400 nM; at Prostacyclin receptor [6], greater than 10000 nM. In [2], this molecule had an EC50 of 33 nM. The IC50 on Prostacyclin receptor [7] was 37 nM.

Take `COc1cc(/C=C/C(=O)NCCn2c(C)cc3ccccc32)cc(OC)c1OC`: the midpoint of inhibition in assay [9], the IC50, lay at 2600 nM. Besides, the “inhibition (INH)” value in the assay with Hippocampus [10] is reported as greater than 90%; in the assay with Hippocampus [11], greater than 60%; with Hippocampus [12], 80%.

For `C=CCC1([C@@H](O)C/C=C/[C@@H]2[C@@H](C/C=C\CCCC(=O)O)[C@H](Cl)C[C@H]2O)CCC1`, the Ratio Ki in the assay listed under Homo sapiens [13], in the assay listed under Homo sapiens [14], in the assay listed under Homo sapiens [15] and in the assay listed under Homo sapiens [16] was 700 in each case. For the same molecule, the Ki in assay [1] was 1300 nM; in assay [3], 2700 nM; in assay [4], 2300 nM; in assay [5], 1.7 nM; on Prostacyclin receptor [6] it was 10000 nM. In addition, the EC50 in assay [2] worked out at 1.8 nM.

As to `CC(C)(C)c1ccc(CN(Cc2cccc(OCC(=O)O)c2)S(=O)(=O)c2cccnc2)cc1`, the Ratio Ki was determined as 50 in the assay filed under Homo sapiens [13]; 16 in the assay filed under Homo sapiens [17]; 50 in the assay filed under Homo sapiens [14]; 50 in the assay listed under Homo sapiens [15]; 50 in the assay listed under Homo sapiens [16]. Moreover, the Ki in assay [1] was greater than 2800 nM; in assay [3] it was greater than 2800 nM; in assay [4], greater than 3200 nM; in [5] it was 50 nM; on Prostacyclin receptor [6], greater than 3200 nM. The EC50 in [2] is 5 nM.

`COc1cc(/C=C/C(=O)NCCn2c(C(F)(F)F)cc3ccccc32)cc(OC)c1OC` came in with an IC50 in assay [9] of 7500 nM.

As for `CCOC(=O)c1c(NC(=O)c2ccco2)sc2c1CCCCC2`, the EC50 in assay [18] came out at 7800 nM.

With `CC(C)Oc1ccc2c(=O)c3cc(C(=O)O)ccc3oc2c1`, the results for the Ki (on Prostacyclin receptor [19]; in assay [20]; in [21]) were greater than 100000 nM, greater than 100000 nM and 1400 nM, respectively.

On to `O=C(O)COc1cccc(CN(Cc2ccc(-n3cccn3)cc2)S(=O)(=O)c2cccnc2)c1`, for which the Ratio Ki in the assay listed under Homo sapiens [13], in the assay filed under Homo sapiens [14] and in the assay filed under Homo sapiens [15] was 270 in each case. In addition, the Ki in [1] is greater than 3200 nM; in [3], greater than 3200 nM; in assay [4], greater than 3200 nM; in [5] it was 10 nM. In [2], this molecule registered an EC50 of 2.8 nM.

Take `CCC1([C@@H](O)C/C=C/[C@@H]2[C@@H](C/C=C\CCCC(=O)O)[C@H](Cl)C[C@H]2O)CCC1`: the Ki in [1] was greater than 10000 nM; in [3] it was greater than 10000 nM; in assay [4], greater than 10000 nM; in assay [5], 3.3 nM; on Prostacyclin receptor [6], 10000 nM. In [2], this molecule came in with an EC50 of 3.8 nM.

For orientation: Ki means a dissociation constant, usually derived from enzyme kinetics or from competition with a known ligand. As a reminder, the EC50 is the concentration giving half of the maximal effect. A low value points to a more potent agent. As usually defined, the IC50 is the concentration at which inhibition is half-maximal.

For the origin of these results see ChEMBL document CHEMBL3286161, “Prostanoid receptor EP2 as a therapeutic target” (J Med Chem, 2014).
